Results from ChEMBL document CHEMBL5260810, “Inhibition of bromodomain-containing protein 9 for the prevention of epigenetically-defined drug resistance” (Bioorg Med Chem Lett, 2017).
The source made the active and inactive calls. The rule behind the calls is not given here.

Assays:
Assay type in all cases: functional, cell-based
[1] = Cytotoxicity against human NCE-G 121 cells measured after 3 days; conditions: NCE-G 121, 72 h
EB2 = assay: Cytotoxicity against human EB2 cells measured after 3 days; conditions: EB2, 72 h
JJN-3 = assay: Cytotoxicity against human JJN-3 cells measured after 3 days; conditions: JJN-3, 72 h
Granta-519 = assay: Cytotoxicity against human Granta-519 cells measured after 3 days; conditions: Granta-519, 72 h
[2] = Cytotoxicity against human HLF cells measured after 3 days; conditions: 72 h
AMO1 = assay: Cytotoxicity against human AMO1 cells measured after 3 days; conditions: AMO1, 72 h
NCI-H647 = assay: Cytotoxicity against human NCI-H647 cells measured after 3 days; conditions: NCI-H647, 72 h
HEL = assay: Cytotoxicity against human HEL cells measured after 3 days; conditions: 72 h
[3] = Cytotoxicity against human JHH7 cells measured after 3 days; conditions: JHH7, 72 h
[4] = Cytotoxicity against human HCC1428 cells measured after 3 days; conditions: HCC1428, 72 h
Rec1 = assay: Cytotoxicity against human REC1 cells measured after 3 days; conditions: Rec1, 72 h
786-0 = assay: Cytotoxicity against human 786-0 cells measured after 3 days; conditions: 786-0, 72 h
OCI-AML2 = assay: Cytotoxicity against human OCI-AML2 cells measured after 3 days; conditions: OCI-AML2, 72 h
[5] = Cytotoxicity against human KHM-1B cells measured after 3 days; conditions: 72 h
U-698-M = assay: Cytotoxicity against human U-698-M cells measured after 3 days; conditions: 72 h
[6] = Cytotoxicity against human EFM-192A cells measured after 8 days; conditions: 192 h
[7] = Cytotoxicity against human ONCO-DG-1 cells measured after 3 days; conditions: ONCO-DG-1, 72 h
SW1573 = assay: Cytotoxicity against human SW1573 cells measured after 3 days; conditions: SW1573, 72 h
T47D = assay: Cytotoxicity against human T47D cells measured after 3 days; conditions: 72 h
[8] = Cytotoxicity against human NCE-G 141 cells measured after 3 days; conditions: NCE-G 141, 72 h
TOV21G = assay: Cytotoxicity against human TOV-21G cells measured after 3 days; conditions: 72 h
HCC1395 = assay: Cytotoxicity against human HCC1395 cells measured after 3 days; conditions: HCC1395, 72 h
Calu-6 = assay: Cytotoxicity against human Calu-6 cells after 8 days; conditions: Calu-6, 192 h
[9] = Cytotoxicity against human BM-1604 cells measured after 3 days; conditions: BM-1604, 72 h
[10] = Cytotoxicity against human KMS-27 cells measured after 3 days; conditions: KMS-27, 72 h
[11] = Cytotoxicity against human NCE-G 112 cells measured after 3 days; conditions: NCE-G 112, 72 h
[12] = Cytotoxicity against human KP-3L cells measured after 3 days; conditions: 72 h
HCC2935 = assay: Cytotoxicity against human HCC2935 cells after 8 days; conditions: HCC2935, 192 h
[13] = Cytotoxicity against human HCC630 cells measured after 3 days; conditions: HCC630, 72 h
MHH-PREB-1 = assay: Cytotoxicity against human MHH-PREB-1 cells measured after 3 days; conditions: MHH-PREB-1, 72 h
ZR-75-1 = assay: Cytotoxicity against human ZR-75-1 cells measured after 8 days; conditions: ZR-75-1, 192 h
HT = assay: Cytotoxicity against human HT cells measured after 3 days; conditions: 72 h
[14] = Cytotoxicity against human Li-7 cells measured after 3 days; conditions: Li-7, 72 h
EKVX = assay: Cytotoxicity against human EKVX cells after 8 days; conditions: 192 h
SU-DHL-16 = assay: Cytotoxicity against human SU-DHL-16 cells measured after 3 days; conditions: SU-DHL-16, 72 h
OCI-LY19 = assay: Cytotoxicity against human OCILY19 cells measured after 3 days; conditions: OCI-LY19, 72 h
IMR-32 = assay: Cytotoxicity against human IMR-32 cells measured after 3 days; conditions: IMR-32, 72 h
[15] = Cytotoxicity against human HCC89 cells measured after 3 days; conditions: HCC89, 72 h
TYK-nu = assay: Cytotoxicity against human TYK-nu cells measured after 3 days; conditions: 72 h
KG-1 = assay: Cytotoxicity against human KG-1 cells measured after 3 days; conditions: KG-1, 72 h
HMEC = assay: Cytotoxicity against HMEC cells measured after 8 days; conditions: Homo sapiens, 192 h
SNU-182 = assay: Cytotoxicity against human SNU-182 cells measured after 3 days; conditions: SNU-182, 72 h
CAL-12T = assay: Cytotoxicity against human CAL-12T cells measured after 3 days; conditions: 72 h
[16] = Cytotoxicity against human OVCA 420 cells measured after 3 days; conditions: OVCA 420, 72 h
A2780 = assay: Cytotoxicity against human A2780 cells measured after 3 days; conditions: A2780, 72 h
[17] = Cytotoxicity against human OCI-M1 cells measured after 3 days; conditions: OCI-M1, 72 h
NCI-H1573 = assay: Cytotoxicity against human NCI-H1573 cells after 8 days; conditions: NCI-H1573, 192 h
OV-90 = assay: Cytotoxicity against human OV-90 cells measured after 3 days; conditions: OV-90, 72 h
[18] = Cytotoxicity against human YMB-1 cells measured after 3 days; conditions: YMB-1, 72 h
MDA-MB-175-VII = assay: Cytotoxicity against human MDA-MB-175-VII cells measured after 3 days; conditions: 72 h
HCC70 = assay: Cytotoxicity against human HCC70 cells measured after 3 days; conditions: HCC70, 72 h
Huh-7 = assay: Cytotoxicity against human Huh-7 cells measured after 3 days; conditions: Huh-7, 72 h
DOV13 = assay: Cytotoxicity against human DOV13 cells measured after 3 days; conditions: DOV13, 72 h
PA-1 = assay: Cytotoxicity against human PA-1 cells measured after 3 days; conditions: PA-1, 72 h
MEL-HO = assay: Cytotoxicity against human MEL-HO cells measured after 3 days; conditions: 72 h
HCC1187 = assay: Cytotoxicity against human HCC1187 cells measured after 3 days; conditions: HCC1187, 72 h
WSUDLCL2 = assay: Cytotoxicity against human WSUDLCL2 cells measured after 3 days; conditions: WSUDLCL2, 72 h
[19] = Cytotoxicity against human NCE-G 120 cells measured after 3 days; conditions: NCE-G 120, 72 h
CA46 = assay: Cytotoxicity against human CA46 cells measured after 3 days; conditions: CA46, 72 h
HCC1954 = assay: Antiproliferative activity against human HCC1954 cells assessed as reduction in colony formation upto 20 uM supplemented with fresh medium containing compound every 3 days for 9 days by MTT staining based clonogenic assay; conditions: time 9.0 day
Pfeiffer = assay: Cytotoxicity against human Pfeiffer cells measured after 8 days; conditions: 192 h
Kasumi 1 = assay: Cytotoxicity against human Kasumi 1 cells measured after 8 days; conditions: Kasumi 1, 192 h

SMILES: C/C=C/Cn1cc(-c2cc(OC)c(C(=O)N3CCOCC3)cc2OC)c2cc(C)[nH]c2c1=O
- IC50 [1]: 5 µM
- IC50 (EB2): 5 µM
- IC50 (JJN-3): 5 µM
- IC50 (Granta-519): 5 µM
- IC50 [2]: 5 µM
- IC50 (AMO1): 5 µM
- IC50 (NCI-H647): 5 µM
- IC50 (HEL): 5 µM
- IC50 [3]: 5 µM
- IC50 [4]: 5 µM
- IC50 (Rec1): 5 µM
- IC50 (786-0): 5 µM
- IC50 (OCI-AML2): 5 µM
- IC50 [5]: 5 µM
- IC50 (U-698-M): 5 µM
- IC50 [6]: 2 µM
- IC50 [7]: 5 µM
- IC50 (SW1573): 5 µM
- IC50 (T47D): 5 µM
- IC50 [8]: 5 µM
- IC50 (TOV21G): 5 µM
- IC50 (HCC1395): 5 µM
- IC50 (Calu-6): 2 µM
- IC50 [9]: 5 µM
- IC50 [10]: 5 µM
- IC50 [11]: 5 µM
- IC50 [12]: 5 µM
- IC50 (HCC2935): 2 µM
- IC50 [13]: 5 µM
- IC50 (MHH-PREB-1): 5 µM
- IC50 (ZR-75-1): 2 µM
- IC50 (HT): 5 µM
- IC50 [14]: 5 µM
- IC50 (EKVX): 2 µM
- IC50 (SU-DHL-16): 5 µM
- IC50 (OCI-LY19): 5 µM
- IC50 (IMR-32): 5 µM
- IC50 [15]: 5 µM
- IC50 (TYK-nu): 5 µM
- IC50 (KG-1): 5 µM
- IC50 (HMEC): 2 µM
- IC50 (SNU-182): 5 µM
- IC50 (CAL-12T): 5 µM
- IC50 [16]: 5 µM
- IC50 (A2780): 5 µM
- IC50 [17]: 5 µM
- IC50 (NCI-H1573): 2 µM
- IC50 (OV-90): 5 µM
- IC50 [18]: 5 µM
- IC50 (MDA-MB-175-VII): 5 µM
- IC50 (HCC70): 5 µM
- IC50 (Huh-7): 5 µM
- IC50 (DOV13): 5 µM
- IC50 (PA-1): 5 µM
- IC50 (MEL-HO): 5 µM
- IC50 (HCC1187): 5 µM
- IC50 (WSUDLCL2): 5 µM
- IC50 [19]: 5 µM
- IC50 (CA46): 5 µM

SMILES: C/C=C/Cn1cc(-c2ccc(C(C)(C)O)cc2OC)c2cc[nH]c2c1=O
- Activity (HCC1954): Active
- IC50 (Pfeiffer): 6.95 µM
- IC50 (Kasumi 1): 3.63 µM
